Test: Anticancer human tumor 997537-175-T-J1-PDC patient-derived colon adenocarcinoma cell line growth inhibition [POLQ]
Conditions: 997537-175-T-J1-PDC complex spheroid viability, combination with POLQ inhibitors; second compound 3.16 µM; first compound 0.1 µM; hits give low values
Outline: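 PDC + HUVEC + MSC complex spheroids; POLQ inhibitors ± partner drugs; top conc. at/near clinical Cmax, else 10 microM (SN-38 1 microM), half-log dilutions; 37 degrees C, 5% CO2.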
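Also: luminescence signal used as a surrogate for viable cells; spheroids exposed to drugs for seven days before readout.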

First: CC1COCCN1c1cc(-c2ccnn2C)c2ccnc(-c3ccn[nH]3)c2n1 (stereo unspecified) + Nc1ccc(C#CCN(C(=O)Cc2ncc(C(F)(F)F)cc2C(F)(F)F)c2ccc(F)cc2)nn1
Second: CC1COCCN1c1cc(C2(O)CC3CCC(C2)O3)c2cnn(-c3ccn[nH]3)c2n1 (stereo unspecified) + Cc1cccc(N(C)C(=O)C2C(O)CCN2c2nc(C)cc(C(F)(F)F)c2C#N)c1
The viability, T/C of the first is higher: 84.3% for the first, 59.9% for the second.

`CC1COCCN1c1cc(C2(O)CC3CCC(C2)O3)c2cnn(-c3ccn[nH]3)c2n1` (stereo unspecified) + COC1C(OC(N)=O)C(O)C(Oc2ccc3c(O)c(NC(=O)c4ccc(O)c(CC=C(C)C)c4)c(=O)oc3c2C)OC1(C)C gave a viability, T/C of 68.1%.

Same assay, conditions: 997537-175-T-J1-PDC complex spheroid viability, combination with POLQ inhibitors; second compound 3.16 µM; first compound 0.316 µM; hits give low values

Compared with `COc1cc2cc(C(=O)CCC(=O)O)sc2cc1OC` + COC1C(OC(N)=O)C(O)C(Oc2ccc3c(O)c(NC(=O)c4ccc(O)c(CC=C(C)C)c4)c(=O)oc3c2C)OC1(C)C, `O=C(Nc1ccc(O)c(NS(=O)(=O)c2ccc(F)cc2)c1)c1ccc(-c2ccccc2)cc1` + Nc1ccc(C#CCN(C(=O)Cc2ncc(C(F)(F)F)cc2C(F)(F)F)c2ccc(F)cc2)nn1 is higher in viability, T/C: 96.5% for the first, 114% for the second.

Going from `CC1COCCN1c1cc(-c2ccnn2C)c2ccnc(-c3ccn[nH]3)c2n1` (stereo unspecified) + Nc1ccc(C#CCN(C(=O)Cc2ncc(C(F)(F)F)cc2C(F)(F)F)c2ccc(F)cc2)nn1 to `CC1COCCN1c1cc(C2(O)CC3CCC(C2)O3)c2cnn(-c3ccn[nH]3)c2n1` (stereo unspecified) + Cc1cccc(N(C)C(=O)C2C(O)CCN2c2nc(C)cc(C(F)(F)F)c2C#N)c1, the viability, T/C rises from 36% to 62.8%.

Molecule `CC1COCCN1c1cc(C2(O)CC3CCC(C2)O3)c2cnn(-c3ccn[nH]3)c2n1` (stereo unspecified) + COC1C(OC(N)=O)C(O)C(Oc2ccc3c(O)c(NC(=O)c4ccc(O)c(CC=C(C)C)c4)c(=O)oc3c2C)OC1(C)C has a viability, T/C of 47.9%.

Same assay, conditions: 997537-175-T-J1-PDC complex spheroid viability, combination with POLQ inhibitors; second compound 3.16 µM; first compound 1 µM; hits give low values

Compared with `COc1cc2cc(C(=O)CCC(=O)O)sc2cc1OC` + COC1C(OC(N)=O)C(O)C(Oc2ccc3c(O)c(NC(=O)c4ccc(O)c(CC=C(C)C)c4)c(=O)oc3c2C)OC1(C)C, `O=C(Nc1ccc(O)c(NS(=O)(=O)c2ccc(F)cc2)c1)c1ccc(-c2ccccc2)cc1` + Nc1ccc(C#CCN(C(=O)Cc2ncc(C(F)(F)F)cc2C(F)(F)F)c2ccc(F)cc2)nn1 is higher in viability, T/C: 101% for the first, 110% for the second.

First: CC1COCCN1c1cc(-c2ccnn2C)c2ccnc(-c3ccn[nH]3)c2n1 (stereo unspecified) + Nc1ccc(C#CCN(C(=O)Cc2ncc(C(F)(F)F)cc2C(F)(F)F)c2ccc(F)cc2)nn1
Second: CC1COCCN1c1cc(C2(O)CC3CCC(C2)O3)c2cnn(-c3ccn[nH]3)c2n1 (stereo unspecified) + Cc1cccc(N(C)C(=O)C2C(O)CCN2c2nc(C)cc(C(F)(F)F)c2C#N)c1
The viability, T/C of the first is lower: 28.6% for the first, 54.1% for the second.

With `CC1COCCN1c1cc(C2(O)CC3CCC(C2)O3)c2cnn(-c3ccn[nH]3)c2n1` (stereo unspecified) + COC1C(OC(N)=O)C(O)C(Oc2ccc3c(O)c(NC(=O)c4ccc(O)c(CC=C(C)C)c4)c(=O)oc3c2C)OC1(C)C the viability, T/C was 48.9%.

Same assay, conditions: 997537-175-T-J1-PDC complex spheroid viability, combination with POLQ inhibitors; second compound 3.16 µM; first compound 3.16 µM; hits give low values

Going from `COc1cc2cc(C(=O)CCC(=O)O)sc2cc1OC` + COC1C(OC(N)=O)C(O)C(Oc2ccc3c(O)c(NC(=O)c4ccc(O)c(CC=C(C)C)c4)c(=O)oc3c2C)OC1(C)C to `O=C(Nc1ccc(O)c(NS(=O)(=O)c2ccc(F)cc2)c1)c1ccc(-c2ccccc2)cc1` + Nc1ccc(C#CCN(C(=O)Cc2ncc(C(F)(F)F)cc2C(F)(F)F)c2ccc(F)cc2)nn1, the viability, T/C rises from 97.3% to 102%.

Compared with `CC1COCCN1c1cc(-c2ccnn2C)c2ccnc(-c3ccn[nH]3)c2n1` (stereo unspecified) + Nc1ccc(C#CCN(C(=O)Cc2ncc(C(F)(F)F)cc2C(F)(F)F)c2ccc(F)cc2)nn1, `CC1COCCN1c1cc(C2(O)CC3CCC(C2)O3)c2cnn(-c3ccn[nH]3)c2n1` (stereo unspecified) + Cc1cccc(N(C)C(=O)C2C(O)CCN2c2nc(C)cc(C(F)(F)F)c2C#N)c1 is higher in viability, T/C: 52.5% for the first, 54.5% for the second.

For `CC1COCCN1c1cc(C2(O)CC3CCC(C2)O3)c2cnn(-c3ccn[nH]3)c2n1` (stereo unspecified) + COC1C(OC(N)=O)C(O)C(Oc2ccc3c(O)c(NC(=O)c4ccc(O)c(CC=C(C)C)c4)c(=O)oc3c2C)OC1(C)C, the viability, T/C was 61.7%.

Same assay, conditions: 997537-175-T-J1-PDC complex spheroid viability, combination with POLQ inhibitors; second compound 3.16 µM; first compound 10 µM; hits give low values

Going from `COc1cc2cc(C(=O)CCC(=O)O)sc2cc1OC` + COC1C(OC(N)=O)C(O)C(Oc2ccc3c(O)c(NC(=O)c4ccc(O)c(CC=C(C)C)c4)c(=O)oc3c2C)OC1(C)C to `O=C(Nc1ccc(O)c(NS(=O)(=O)c2ccc(F)cc2)c1)c1ccc(-c2ccccc2)cc1` + Nc1ccc(C#CCN(C(=O)Cc2ncc(C(F)(F)F)cc2C(F)(F)F)c2ccc(F)cc2)nn1, the viability, T/C falls from 105% to 90.9%.

First: CC1COCCN1c1cc(-c2ccnn2C)c2ccnc(-c3ccn[nH]3)c2n1 (stereo unspecified) + Nc1ccc(C#CCN(C(=O)Cc2ncc(C(F)(F)F)cc2C(F)(F)F)c2ccc(F)cc2)nn1
Second: CC1COCCN1c1cc(C2(O)CC3CCC(C2)O3)c2cnn(-c3ccn[nH]3)c2n1 (stereo unspecified) + Cc1cccc(N(C)C(=O)C2C(O)CCN2c2nc(C)cc(C(F)(F)F)c2C#N)c1
The viability, T/C of the first is higher: 82% for the first, 75.8% for the second.

With `CC1COCCN1c1cc(C2(O)CC3CCC(C2)O3)c2cnn(-c3ccn[nH]3)c2n1` (stereo unspecified) + COC1C(OC(N)=O)C(O)C(Oc2ccc3c(O)c(NC(=O)c4ccc(O)c(CC=C(C)C)c4)c(=O)oc3c2C)OC1(C)C the viability, T/C was 50.8%.

Same assay, conditions: 997537-175-T-J1-PDC complex spheroid viability, combination with POLQ inhibitors; second compound 10 µM; first compound 0.0316 µM; hits give low values

Compared with `COc1cc2cc(C(=O)CCC(=O)O)sc2cc1OC` + COC1C(OC(N)=O)C(O)C(Oc2ccc3c(O)c(NC(=O)c4ccc(O)c(CC=C(C)C)c4)c(=O)oc3c2C)OC1(C)C, `O=C(Nc1ccc(O)c(NS(=O)(=O)c2ccc(F)cc2)c1)c1ccc(-c2ccccc2)cc1` + Nc1ccc(C#CCN(C(=O)Cc2ncc(C(F)(F)F)cc2C(F)(F)F)c2ccc(F)cc2)nn1 is higher in viability, T/C: 97.2% for the first, 105% for the second.

`CC1COCCN1c1cc(-c2ccnn2C)c2ccnc(-c3ccn[nH]3)c2n1` (stereo unspecified) + Nc1ccc(C#CCN(C(=O)Cc2ncc(C(F)(F)F)cc2C(F)(F)F)c2ccc(F)cc2)nn1 showed a viability, T/C of 83.5%.

From PubChem BioAssay AID1963825 (Molecular Pharmacology Branch, DTP, NCI, 2024)
